Measurements taken from patent publication US20030187048A1, “Method for inhibiting skin lesion formation using histamine as the active ingredient” (priority 1991, published 2003).
“And” between values parts separate entries of the source, which are not always exact repeats. Identical values can stand only once. Like-named read-outs stand apart in the source and are kept apart here.

Legend:
[1] = system: aphthous ulcers (canker sores); details: 0.0067% IEP gel; aphthous stomatitis
Method: (§1) The composition of the present invention includes initial preparation of a gel base by adding 0.8% CARBOPOL 940, which is a vinyl polymer, to distilled water. This mixture was allowed to stand for several hours until the polymer was wetted and a gel was formed. This mixture then was blended by means of a ordinary high speed mixer, such as a Lightning Labmaster II until a homogenous mixture is formed. At this point, a neutralizing and emulsifying agent such as an amino alcohol was added, forming an emulsion. […] This composition then was applied topically to various types of lesions, as subsequently described. […] Propylparaben or methylparaben may be used as a preservative. For “unidose” dispensers containing only two to three drops, no preservatives are used, as it is known that preservatives in ophthalmic solutions frequently cause undesirable side effects. The term semi-synthetic water soluble polymer as used herein includes hydroxy methylcellulose or carboxy methylcellulose. Carbopol is widely available in different viscosities.

[2] = system: herpetic stomatitis lesions (fever blisters or cold sores)
Method: as §1

[3] = system: Varicella zoster (chickenpox) lesions; details: for Mean % Reduction In Healing Time per Lesion: compared to placebo gel; for Itching score / Local pain score: scale 0 to 5; for Mean Time to Lesion Healing: placebo patients 7 days
Method: Treatment consisted of topical application three times a day for a period of five days. […] The mean percent reduction in complete healing time per average pox lesion was evaluated grouping the two patients who received active gel concentrations together and comparing to the two patients receiving placebo gel.
Subjects were assigned randomly to one of three active ingredient levels being evaluated, 0.0%, 0.0067% and G.009% by weight of active ingredient.
Each patient was contacted daily for 5 days for his or her estimate of the symptomatic relief of any symptoms associated with Varicella zoster (chickenpox) as well as the patient's interpretation of total healing of the episode in addition to the patient's description of the lesions present. In an attempt to quantify responses, patients were asked to rate each symptom each day on a scale of 0 to 5 with 0 representing no evidence of the symptom and 5 representing to worst or most prominent evidence of the symptom ever for the patient. Subject compliance with the study regimen and the use of other medications was also assessed.
Lesions were monitored for the usual progression of the typical stages seen with Varicella zoster. Typical chickenpox begins as crops of small, red papules that almost immediately develop into clear, “tear drop” vesicles on an erythematous base which are usually not umbilicated. The lesions initially contain clear fluid, but within 24 hours the contents become cloudy. once this occurs, the vesicles are easily broken and become scabbed. Successive crops of lesions appear for 3 to 4 days.

[4] = system: Giant Papillary Conjunctivitis
Method: as §1
Treatment consisted of topical ophthalmic application of both ophthalmic solution concentrations to their randomly assigned patients 2 times a day for 5 days. […] Each patient was clinically evaluated at 48 hours and 120 hours following the initiation of treatment for 2 parameters of tissue damage associated with Giant Papillary Conjunctivitis. In addition, each patient was asked to evaluate subjectively 2 symptoms associated with Giant Papillary conjunctivitis 48 hours and 120 hours after treatment initiation. The percent reduction from the initial presentation of each of the parameters of tissue damage and the initial presentation for each additional symptom evaluated was calculated from 48 and 120 hour post treatment initiation data.
Patients were randomly assigned to one of two active levels being evaluated.
Clinical evaluation was performed at 48 hours and 120 hours post treatment initiation. Each patient was asked to subjectively evaluate 2 additional symptoms associated with Giant Papillary Conjunctivitis by rating each symptom on a scale of 0 to 5 with 0 representing no evidence of symptom and 5 representing the greatest evidence of the symptom ever by the patient. Clinical evaluation of tissue damage parameters was also done using the same scale of 0 to 5. Patient compliance with the treatment regimen and the use of other medications was also evaluated.

[5] = 0.0067% IEP gel, herpes labialis
[6] = 0.0067% ophth soln, 48 hr, per patient
[7] = 0.0067% ophth soln, 120 hr, per patient
[8] = 0.0067% ophth soln, scale 0 to 5, per patient

SMILES: NCCc1c[nH]cn1 [IEP, 1H-imidazole-4-ethanamine,phosphate]
- Burning, reduction after 1 app. [1]: 20%
- Burning, reduction after 1 day [1]: 40%
- Estimated number of applications needed to eliminate clinical symptoms [1]: 9
- Pain, reduction after 1 app. [1]: 73%
- Pain, reduction after 1 day [1]: 80%
- Percentage decrease in healing time compared to untreated episode [1]: 67%
- Percentage of patients who experienced lesion abortion [1]: 67%
- Size, reduction after 1 app. [1]: 23%
- Size, reduction after 1 day [1]: 43%
- Swelling, reduction after 1 app. [1]: 20%
- Swelling, reduction after 1 day [1]: 50%
- Burning, reduction after 1 app. [2, 5]: 63%
- Burning, reduction after 1 day [2, 5]: 92%
- Estimated number of applications needed to eliminate clinical symptoms [2, 5]: 5
- Itching, reduction after 1 app. [2, 5]: %60
- Itching, reduction after 1 day [2, 5]: 97%
- Pain, reduction after 1 app. [2, 5]: 58%
- Pain, reduction after 1 day [2, 5]: 87%
- Percentage decrease in healing time compared to untreated episode [2, 5]: 49%
- Percentage of patients who experienced lesion abortion [2, 5]: 60%
- Size, reduction after 1 app. [2, 5]: 10%
- Size, reduction after 1 day [2, 5]: 32%
- Spreading, reduction after 1 app. [2, 5]: 40%
- Spreading, reduction after 1 day [2, 5]: 62%
- Swelling, reduction after 1 app. [2, 5]: %27
- Swelling, reduction after 1 day [2, 5]: 72%
- Fraction of total patients who experienced the abortion of lesions ([2]; 0.0067% gel applied at first sensation, both treatment groups (herpes labialis and aphthous ulcers)): Approximately two-thirds
- Mean % Reduction In Healing Time per Lesion ([3]; 0.0067% IEP gel): 50.0%
- Itching score ([3]; 0.0067% IEP gel, day 1): 2
- Local pain score ([3]; 0.0067% IEP gel, day 1): 2
- Itching score ([3]; 0.0067% IEP gel, day 2): 0
- Local pain score ([3]; 0.0067% IEP gel, day 2): 1
- Itching score ([3]; 0.0067% IEP gel, day 3): 0
- Local pain score ([3]; 0.0067% IEP gel, day 3): 0
- Itching score ([3]; 0.0067% IEP gel, day 4): 0
- Local pain score ([3]; 0.0067% IEP gel, day 4): 0
- Itching score ([3]; 0.0067% IEP gel, day 5): 0
- Local pain score ([3]; 0.0067% IEP gel, day 5): 0
- Mean Time to Lesion Healing ([3]; 0.0067% gel): 3.5 days
- Mean % Reduction In Healing Time per Lesion ([3]; 0.009% IEP gel): 64.28%
- Itching score ([3]; 0.009% IEP gel, day 1): 2
- Local pain score ([3]; 0.009% IEP gel, day 1): 3
- Itching score ([3]; 0.009% IEP gel, day 2): 0
- Local pain score ([3]; 0.009% IEP gel, day 2): 1
- Itching score ([3]; 0.009% IEP gel, day 3): 0
- Local pain score ([3]; 0.009% IEP gel, day 3): 0
- Itching score ([3]; 0.009% IEP gel, day 4): 0
- Local pain score ([3]; 0.009% IEP gel, day 4): 0
- Itching score ([3]; 0.009% IEP gel, day 5): 0
- Local pain score ([3]; 0.009% IEP gel, day 5): 0
- Mean Time to Lesion Healing ([3]; 0.009% gel): 2.5 days
- Difference in mean percent reduction in complete healing time per lesion vs placebo ([3]; combined 0.0067% and 0.009% groups, p<0.05): significant
- Progression of lesion stages ([3]; lesions treated with 0.0067% and 0.009% gel): did not progress through the usual progression of lesions stages
- Untoward reactions ([3]; topical gel 0.0067%, 0.009%, three times a day for five days): no untoward reactions
- Exudation, Percent Reduction from Pre-Treatment Value [4, 6]: 50.0% and 75.0% and 100.0%
- Itch/Burn, Percent Reduction from Pre-Treatment Value [4, 6]: 75.0% and 80.0% and 100.0%
- Redness, Percent Reduction from Pre-Treatment Value [4, 6]: 50.0% and 66.67% and 100.0%
- Contact Lens Tolerance, Percent Reduction from Pre-Treatment Value [4, 7]: 100.0%
- Exudation, Percent Reduction from Pre-Treatment Value [4, 7]: 100.0%
- Itch/Burn, Percent Reduction from Pre-Treatment Value [4, 7]: 100.0%
- Redness, Percent Reduction from Pre-Treatment Value [4, 7]: 100.0%
- Conjunctival Injection (redness), Value at 120 Hours [4, 8]: 0
- Contact Lens Tolerance, Value at 120 hours [4, 8]: 0
- Exudation, Value at 120 Hours [4, 8]: 0
- Itching and Burning, Value at 120 hours [4, 8]: 0
- Difference in percent reduction of tissue damage parameters and symptoms vs placebo ophthalmic solution ([4]; 0.0067% ophthalmic solution, except contact lens tolerance at 48 hours): either significant (p<0.05) or highly significant (p<.O1)
- Decrease in size of the papilla ([4]; end of the 5 day treatment period, any of the patients): a significant decrease in size of the papilla was not noted
- Untoward effects ([4]; in vivo): no untoward effects
